From US20230233569A1 (Revolution Medicines, Inc., priority 2020, published 2023)

Assays:
Test in all cases: Ras-Raf disruption / FRET / MOA assay (BRAF RBD)
Format in all cases: biochemical
KRAS G13D = KRAS G13D (Homo sapiens, UniProt P01116+P62937, G13D); conditions: Ras-Raf disruption, with Cyclophilin A; read-out: KRAS G13D FRET data IC50
Source text: (§1) Disruption of […] Ras-binding Domain (BRAF^RBD) Interaction with K-Ras by Compounds of the Invention (also Called a FRET Assay or an MOA Assay)
(§2) Note—The following protocol describes a procedure for monitoring disruption of K-Ras G12C (GMP-PNP) binding to BRAF^RBD by a compound of the invention. This protocol may also be executed substituting other Ras proteins or nucleotides, such as K-Ras G12D and K-Ras G13D.
(§3) The purpose of this biochemical assay was to measure the ability of test compounds to facilitate ternary complex formation between a nucleotide-loaded K-Ras isoform and Cyclophilin A; the resulting ternary complex disrupts binding to a BRAF^RBD construct, inhibiting K-Ras signaling through a RAF effector. Data is reported as IC50 values.
(§4) In assay buffer containing 25 mM HEPES pH 7.3, 0.002% Tween20, 0.1% BSA, 100 mM NaCl and 5 mM MgCl2, tagless Cyclophilin A, His6-K-Ras-GMPPNP, and GST-BRAF^RBD were combined in a 384-well assay plate at final concentrations of 25 μM, 12.5 nM, and 50 nM, respectively. Compound was present in plate wells as a 10-point 3-fold dilution series starting at a final concentration of 30 μM. After incubation at 25° C. for 3 hours, a mixture of anti-His Eu-W1024 and anti-GST allophycocyanin was then added to assay sample wells at final concentrations of 10 nM and 50 nM, respectively, and the reaction incubated for an additional 1.5 hours. […] Compounds that facilitate disruption of a K-Ras:RAF complex were identified as those eliciting a decrease in the TR-FRET ratio relative to DMSO control wells.

KRAS G12V = KRAS G12V (Homo sapiens, UniProt P01116+P62937, G12V); conditions: Ras-Raf disruption, with Cyclophilin A; read-out: KRAS G12V FRET data IC50
Source text: as §1, §2, §3, §4

NRAS G12C = NRAS G12C (Homo sapiens, UniProt P01111+P62937, G12C); conditions: NRAS G12C; read-out: NRAS G12C FRET data IC50
Source text: as §1, §2, §3, §4

KRAS G12D = KRAS G12D (Homo sapiens, UniProt P01116+P62937, G12D); conditions: Ras-Raf disruption, with Cyclophilin A; read-out: KRAS G12D FRET data IC50
Source text: as §1, §2, §3, §4

KRAS G12S = KRAS G12S (Homo sapiens, UniProt P01116+P62937, G12S); conditions: Ras-Raf disruption, with Cyclophilin A; read-out: KRAS G12S FRET data IC50
Source text: as §1, §2, §3, §4

KRAS G13C = KRAS G13C (Homo sapiens, UniProt P01116+P62937, G13C); conditions: Ras-Raf disruption, with Cyclophilin A; read-out: KRAS G13C FRET data IC50
Source text: as §1, §2, §3, §4

KRAS WT = KRAS WT (Homo sapiens, UniProt P01116+P62937); conditions: Ras-Raf disruption, with Cyclophilin A; read-out: KRAS WT FRET data IC50
Source text: as §1, §2, §3, §4

KRAS G12C = KRAS G12C (Homo sapiens, UniProt P01116+P62937, G12C); conditions: Ras-Raf disruption, with Cyclophilin A; read-out: KRAS G12C FRET data IC50
Source text: as §1, §2, §3, §4
as §3, with “is” for “was”, “Ras” for “K-Ras”, “cyclophilin” for “Cyclophilin”, “effector.” for “effector. Data is reported as IC50 values.”
In assay buffer containing 25 mM HEPES pH 7.3, 0.002% Tween20, 0.1% BSA, 100 mM NaCl and 5 mM MgCl2, tagless Cyclophilin A, His6-K-Ras-GMPPNP (or other Ras variant), and GST-BRAF^RBD are combined in a 384-well assay plate at final concentrations of 25 μM, 12.5 nM and 50 nM, respectively. Compound is present in plate wells as a 10-point 3-fold dilution series starting at a final concentration of 30 μM. After incubation at 25° C. for 3 hours, a mixture of Anti-His Eu-W1024 and anti-GST allophycocyanin is then added to assay sample wells at final concentrations of 10 nM and 50 nM, respectively, and the reaction incubated for an additional 1.5 hours. […] Compounds that facilitate disruption of a Ras:RAF complex are identified as those eliciting a decrease in the TR-FRET ratio relative to DMSO control wells.

KRAS G12V, sequence (P01116 1-169 isoform P01116-2 G12V limits assumed): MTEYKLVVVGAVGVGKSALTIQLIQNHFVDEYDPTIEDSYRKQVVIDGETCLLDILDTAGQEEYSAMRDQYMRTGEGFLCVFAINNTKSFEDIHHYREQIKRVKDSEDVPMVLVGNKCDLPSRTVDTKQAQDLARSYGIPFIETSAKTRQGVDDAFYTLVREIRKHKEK
KRAS G12V, sequence (P62937 whole entry): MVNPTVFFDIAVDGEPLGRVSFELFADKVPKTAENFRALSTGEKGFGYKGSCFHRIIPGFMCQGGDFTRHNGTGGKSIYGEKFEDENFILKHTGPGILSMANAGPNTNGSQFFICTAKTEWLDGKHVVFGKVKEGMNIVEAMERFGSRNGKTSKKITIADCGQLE
KRAS G13C, sequence (P01116 1-169 isoform P01116-2 G13C limits assumed): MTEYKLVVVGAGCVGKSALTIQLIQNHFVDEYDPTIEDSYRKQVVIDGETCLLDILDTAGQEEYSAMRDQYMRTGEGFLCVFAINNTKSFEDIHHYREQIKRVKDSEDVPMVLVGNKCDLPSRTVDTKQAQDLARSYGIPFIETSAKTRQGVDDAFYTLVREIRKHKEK
KRAS G13C, sequence (P62937 whole entry): as the sequence (P62937 whole entry) above
KRAS G12C, sequence (P01116 1-169 isoform P01116-2 G12C limits assumed): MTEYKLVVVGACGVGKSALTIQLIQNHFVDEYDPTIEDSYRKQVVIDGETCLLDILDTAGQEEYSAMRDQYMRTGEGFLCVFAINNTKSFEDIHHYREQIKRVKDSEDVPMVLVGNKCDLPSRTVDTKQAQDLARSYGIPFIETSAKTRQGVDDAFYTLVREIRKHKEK
KRAS G12C, sequence (P62937 whole entry): as the sequence (P62937 whole entry) above
NRAS G12C, sequence (P01111 whole entry G12C): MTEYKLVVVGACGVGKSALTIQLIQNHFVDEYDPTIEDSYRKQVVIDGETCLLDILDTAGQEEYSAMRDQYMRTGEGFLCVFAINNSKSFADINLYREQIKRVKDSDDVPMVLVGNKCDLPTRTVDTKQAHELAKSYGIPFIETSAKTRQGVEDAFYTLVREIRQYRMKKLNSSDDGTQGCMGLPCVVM
NRAS G12C, sequence (P62937 whole entry): as the sequence (P62937 whole entry) above
KRAS G12S, sequence (P01116 1-169 isoform P01116-2 G12S limits assumed): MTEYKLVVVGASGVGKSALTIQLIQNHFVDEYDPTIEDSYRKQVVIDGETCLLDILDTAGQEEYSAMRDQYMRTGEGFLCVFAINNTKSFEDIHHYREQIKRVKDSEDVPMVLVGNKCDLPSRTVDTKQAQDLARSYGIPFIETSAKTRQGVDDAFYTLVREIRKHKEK
KRAS G12S, sequence (P62937 whole entry): as the sequence (P62937 whole entry) above
KRAS WT, sequence (P01116 1-169 isoform P01116-2 limits assumed): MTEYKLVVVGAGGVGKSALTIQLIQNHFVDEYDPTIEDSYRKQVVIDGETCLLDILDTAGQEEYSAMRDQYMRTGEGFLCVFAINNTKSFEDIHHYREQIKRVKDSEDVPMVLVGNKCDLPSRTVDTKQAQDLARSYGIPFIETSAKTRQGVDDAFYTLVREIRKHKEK
KRAS WT, sequence (P62937 whole entry): as the sequence (P62937 whole entry) above
KRAS G13D, sequence (P01116 1-169 isoform P01116-2 G13D limits assumed): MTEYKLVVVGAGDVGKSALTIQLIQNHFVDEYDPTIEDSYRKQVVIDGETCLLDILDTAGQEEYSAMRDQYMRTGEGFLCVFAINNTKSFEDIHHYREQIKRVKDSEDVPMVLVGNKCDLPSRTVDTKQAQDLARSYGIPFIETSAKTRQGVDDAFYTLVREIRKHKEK
KRAS G13D, sequence (P62937 whole entry, the tested form may be a part): as the sequence (P62937 whole entry) above
KRAS G12D, sequence (P01116 1-169 isoform P01116-2 G12D limits assumed): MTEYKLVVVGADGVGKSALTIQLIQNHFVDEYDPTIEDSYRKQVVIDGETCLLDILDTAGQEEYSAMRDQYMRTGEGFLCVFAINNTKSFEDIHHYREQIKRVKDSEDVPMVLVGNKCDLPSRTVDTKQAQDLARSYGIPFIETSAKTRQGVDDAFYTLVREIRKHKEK
KRAS G12D, sequence (P62937 whole entry): as the sequence (P62937 whole entry) above

| SMILES | IC50 (KRAS G13D) | IC50 (KRAS G12V) | IC50 (NRAS G12C) | IC50 (KRAS G12D) | IC50 (KRAS G12S) | IC50 (KRAS G13C) | IC50 (KRAS WT) | IC50 (KRAS G12C) |
| --- | --- | --- | --- | --- | --- | --- | --- | --- |
| CCn1c(-c2cccnc2[C@H](C)OC)c2c3cc(ccc31)-c1cc(O)cc(c1)C[C@H](NC(=O)[C@H](C(C)C)N(C)C(=O)N1CCN(C(=O)[C@H]3CN3)CC1=O)C(=O)N1CCC[C@H](N1)C(=O)OCC(C)(C)C2 (atropisomer, axis not shown) [Example 183] | 100 to 1000 nM | 100 to 1000 nM | 10 to 100 nM | 1000 to 10000 nM | 100 to 1000 nM | 10 to 100 nM | 10 to 100 nM | < 10 nM |
| CCn1c(-c2cccnc2[C@H](C)OC)c2c3cc(ccc31)-c1cc(O)cc(c1)C[C@H](NC(=O)[C@H](C(C)C)N(C)C(=O)[C@]1(F)CCN(C(=O)[C@@H]3CN3)C1)C(=O)N1CCC[C@H](N1)C(=O)OCC(C)(C)C2 (atropisomer, axis not shown) [Example 184] | 100 to 1000 nM | 100 to 1000 nM | < 10 nM | 100 to 1000 nM | 100 to 1000 nM | 10 to 100 nM | 100 to 1000 nM | < 10 nM |
| CCn1c(-c2cccnc2[C@H](C)OC)c2c3cc(ccc31)-c1cc(O)cc(c1)C[C@H](NC(=O)[C@H](C(C)C)N(C)C(=O)[C@@]1(F)CCN(C(=O)[C@@H]3CN3)C1)C(=O)N1CCC[C@H](N1)C(=O)OCC(C)(C)C2 (atropisomer, axis not shown) [Example 185] | 100 to 1000 nM | 100 to 1000 nM | 10 to 100 nM | 100 to 1000 nM | 100 to 1000 nM | 10 to 100 nM | 100 to 1000 nM | 10 to 100 nM |
| CCn1c(-c2cccnc2[C@H](C)OC)c2c3cc(ccc31)-c1cc(O)cc(c1)C[C@H](NC(=O)[C@H](C(C)C)N(C)C(=O)c1ccc(NC(=O)[C@@H]3CN3)cn1)C(=O)N1CCC[C@H](N1)C(=O)OCC(C)(C)C2 (atropisomer, axis not shown) [Example 187] | 100 to 1000 nM | 100 to 1000 nM | 100 to 1000 nM | 100 to 1000 nM | 100 to 1000 nM | 10 to 100 nM | 100 to 1000 nM | 100 to 1000 nM |
| CCn1c(-c2cccnc2[C@H](C)OC)c2c3cc(ccc31)-c1cc(O)cc(c1)C[C@H](NC(=O)[C@H](C(C)C)N(C)C(=O)N1CC(NC(=O)[C@@H]3CN3)C1)C(=O)N1CCC[C@H](N1)C(=O)OCC(C)(C)C2 (atropisomer, axis not shown) [Example 188] | 100 to 1000 nM | 100 to 1000 nM | 10 to 100 nM | 100 to 1000 nM | 100 to 1000 nM | 10 to 100 nM | 100 to 1000 nM | 10 to 100 nM |
| CCn1c(-c2cccnc2[C@H](C)OC)c2c3cc(ccc31)-c1cc(O)cc(c1)C[C@H](NC(=O)[C@H](C(C)C)N(C)C(=O)N1CC(NC(=O)[C@H]3CN3)C1)C(=O)N1CCC[C@H](N1)C(=O)OCC(C)(C)C2 (atropisomer, axis not shown) [Example 189] | 100 to 1000 nM | 10 to 100 nM | 10 to 100 nM | 100 to 1000 nM | 100 to 1000 nM | 10 to 100 nM | 10 to 100 nM | 10 to 100 nM |
| CCn1c(-c2cccnc2[C@H](C)OC)c2c3cc(ccc31)-c1cc(O)cc(c1)C[C@H](NC(=O)[C@H](C(C)C)N(C)C(=O)N1CCCN(C(=O)[C@H]3CN3)CC1)C(=O)N1CCC[C@H](N1)C(=O)OCC(C)(C)C2 (atropisomer, axis not shown) [Example 190] | 100 to 1000 nM | 10 to 100 nM | 10 to 100 nM | 100 to 1000 nM | 10 to 100 nM | 10 to 100 nM | 10 to 100 nM | < 10 nM |
| CCn1c(-c2cccnc2[C@H](C)OC)c2c3cc(ccc31)-c1cc(O)cc(c1)C[C@H](NC(=O)[C@H](C(C)C)N(C)C(=O)[C@H]1CCN(C(=O)[C@@H]3N[C@@H]3C3CC3)C1)C(=O)N1CCC[C@H](N1)C(=O)OCC(C)(C)C2 (atropisomer, axis not shown) [Example 198] | 10 to 100 nM | 100 to 1000 nM | < 10 nM | 10 to 100 nM | 10 to 100 nM | 10 to 100 nM | 10 to 100 nM | < 10 nM |
| CCn1c(-c2cccnc2[C@H](C)OC)c2c3cc(ccc31)-c1cc(O)cc(c1)C[C@H](NC(=O)[C@H](C(C)C)N(C)C(=O)[C@H]1CCN(C(=O)[C@H]3CN3)C1)C(=O)N1CCC[C@H](N1)C(=O)OCC(C)(C)C2 (single isomer, unassigned) [Example 43B] | 1000 to 10000 nM | 1000 to 10000 nM | 10 to 100 nM | 1000 to 10000 nM | 1000 to 10000 nM | 1000 to 10000 nM | – | 10 to 100 nM |
| CCn1c(-c2cnccc2COC)c2c3cc(ccc31)-c1cccc(c1)C[C@H](NC(=O)[C@H](C(C)C)N(C)C(=O)CCN=C=NCCCN1CCOCC1)C(=O)N1CCC[C@H](N1)C(=O)OCC(C)(C)C2 [17 A and B] | – | > 10000 nM | – | 1000 to 10000 nM | > 10000 nM | 1000 to 10000 nM | > 10000 nM | 10 to 100 nM |
| CCCN=C=NCCC(=O)N(C)[C@H](C(=O)N[C@H]1Cc2cccc(c2)-c2ccc3c(c2)c(c(-c2cnccc2COC)n3CC)CC(C)(C)COC(=O)[C@@H]2CCCN(N2)C1=O)C(C)C [22 A and B] | > 10000 nM | 1000 to 10000 nM | 10 to 100 nM | – | 1000 to 10000 nM | 100 to 1000 nM | 1000 to 10000 nM | 10 to 100 nM |
| CCn1c(-c2cnccc2COC)c2c3cc(ccc31)-c1cccc(c1)C[C@H](NC(=O)[C@H](C(C)C)N(C)C(=O)CC1(N=C=Nc3ccc(OC)cc3)CC1)C(=O)N1CCC[C@H](N1)C(=O)OCC(C)(C)C2 [65 A and B] | > 10000 nM | > 10000 nM | > 10000 nM | > 10000 nM | > 10000 nM | – | > 10000 nM | – |
| CCn1c(-c2cnccc2COC)c2c3cc(ccc31)-c1cccc(c1)C[C@H](NC(=O)[C@H](C(C)C)N(C)C(=O)CCN=C=NC1(COC)CC1)C(=O)N1CCC[C@H](N1)C(=O)OCC(C)(C)C2 [72 A and B] | – | – | 100 to 1000 nM | – | > 10000 nM | – | > 10000 nM | – |
| CCn1c(-c2cccnc2[C@H](C)OC)c2c3cc(ccc31)-c1cc(O)cc(c1)C[C@H](NC(=O)[C@H](C(C)C)N(C)C(=O)C1CC3(C1)CN(C(=O)[C@H]1CN1)C3)C(=O)N1CCC[C@H](N1)C(=O)OCC(C)(C)C2 [Example 181] | 100 to 1000 nM | 100 to 1000 nM | 10 to 100 nM | – | 100 to 1000 nM | 10 to 100 nM | 100 to 1000 nM | 10 to 100 nM |
| CCn1c(-c2cccnc2[C@H](C)OC)c2c3cc(ccc31)-c1cc(O)cc(c1)C[C@H](NC(=O)[C@H](C(C)C)N(C)C(=O)N1CCN(C(=O)[C@@H]3CN3)C(=O)C1)C(=O)N1CCC[C@H](N1)C(=O)OCC(C)(C)C2 [Example 197] | – | 10 to 100 nM | 10 to 100 nM | – | 10 to 100 nM | – | 10 to 100 nM | 10 to 100 nM |
